Legend:
Assay in all cases: relative viability (nuclei count vs DMSO), 5 days (fraction); higher = more cells survive
[1] = compound: CNC(=O)c1ccccc1Sc1ccc2c(/C=C/c3ccccn3)n[nH]c2c1 [Axitinib] + COc1cccc2cc(-c3nc([C@H]4CC[C@H](C(=O)O)CC4)n4ncnc(N)c34)[nH]c12 [OSI-027] (partner 0.5 µM)
In short: (§1)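 One day after seeding in 1536-well plates, lung cancer cell lines were dosed by pin tool. Dosing was either single-drug or a fixed anchor-drug dose plus five library-drug doses (not always all listed) in √10 steps. After 5 days, nuclei were stained in one fix-and-stain step and counted on 4× images, and relative viability is the nuclei count of treated wells over that of vehicle wells, given as the median of duplicate plates.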

[2] = compound: CC1=CC=C(C=C1)C(=O)CN2C3=C(CCCC3)SC2=N [Pifithrin_alpha] + Cc1cc(Nc2cc(N3CCN(C)CC3)nc(Sc3ccc(NC(=O)C4CC4)cc3)n2)n[nH]1 [Tozasertib] (partner 0.1 µM)
In short: as §1

[3] = compound: Nc1nc(Nc2ccc3c(c2)CC[C@@H](N2CCCC2)CC3)nn1-c1cc2c(nn1)-c1ccccc1CCC2 [Bemcentinib] + CS(=O)(=O)N1CCN(Cc2cc3nc(-c4cccc5[nH]ncc45)nc(N4CCOCC4)c3s2)CC1 [Pictilisib] (partner 1 µM)
In short: as §1

[4] = compound: Nc1nc(Nc2ccc3c(c2)CC[C@@H](N2CCCC2)CC3)nn1-c1cc2c(nn1)-c1ccccc1CCC2 [Bemcentinib] + O=C(CCCCCCC(=O)Nc1ccccc1)NO [Vorinostat] (partner 1 µM)
In short: as §1

Cell Line	relative viability ([1]; first compound 0.005 µM)	relative viability ([1]; first compound 0.01581 µM)	relative viability ([1]; first compound 0.05 µM)	relative viability ([1]; first compound 0.1581 µM)	relative viability ([1]; first compound 0.5 µM)	relative viability ([2]; first compound 1 µM)	relative viability ([2]; first compound 3.162 µM)	relative viability ([2]; first compound 10 µM)	relative viability ([2]; first compound 31.62 µM)	relative viability ([2]; first compound 100 µM)	relative viability ([3]; first compound 0.04 µM)	relative viability ([3]; first compound 0.1265 µM)	relative viability ([3]; first compound 0.4 µM)	relative viability ([3]; first compound 1.265 µM)	relative viability ([3]; first compound 4 µM)	relative viability ([4]; first compound 0.04 µM)	relative viability ([4]; first compound 0.1265 µM)	relative viability ([4]; first compound 0.4 µM)	relative viability ([4]; first compound 1.265 µM)	relative viability ([4]; first compound 4 µM)
HCC-78	0.365	0.335	0.358	0.362	0.356	0.56	0.543	0.423	0.35	0.404	0.144	0.211	0.202	0.197	0.202	0.456	0.449	0.394	0.514	0.39
HCC-366	0.979	0.895	1.09	1.02	0.939	0.0661	0.0593	0.0876	–	0.0623	0.124	0.206	0.157	0.124	0.146	0.32	0.43	0.441	0.303	0.433
HCC-827	0.822	0.745	0.826	0.759	0.933	0.422	0.522	0.381	0.337	0.353	1.11	0.943	1.05	0.877	1.07	0.79	0.858	0.783	0.361	0.789
HOP-62	0.825	0.865	0.814	0.872	0.923	0.385	0.584	0.355	0.358	0.344	0.661	0.82	–	0.712	0.92	0.606	0.738	0.79	0.672	0.623
IA-LM	–	–	–	–	–	–	–	–	–	–	0.33	0.374	0.397	0.304	0.33	0.968	1.38	0.984	0.965	0.866
LC-2-ad	0.932	0.827	0.907	0.8	0.807	–	0.357	0.379	–	0.311	0.456	0.536	0.553	0.426	0.424	0.705	0.805	0.73	0.726	0.737
LCLC-97TM1	0.589	0.51	0.427	0.48	0.475	0.293	0.178	0.177	0.148	0.217	0.16	0.183	–	0.237	0.249	0.727	0.703	0.702	0.633	0.829
LCLC-103H	0.461	0.487	0.472	0.432	0.535	0.462	0.452	0.485	0.396	0.46	0.588	0.632	0.692	0.604	0.616	0.774	0.826	0.8	0.783	0.883
LK-2	0.202	0.168	0.193	0.191	0.186	0.188	0.134	0.146	–	0.152	0.526	0.608	0.583	0.748	0.611	0.497	0.253	0.171	0.281	0.365

— the supplement of paper PMC10307832
